The results in this text go back to patent publication US20230212159A1, “Process for the Production of Ferroportin Inhibitors” (Vifor (International) AG, priority 2020, published 2023).

Molecules are shown by their SMILES. Read-outs that look alike come from different tables or passages of the source.

As usually defined, the IC50 is the point on the concentration scale where inhibition reaches its midpoint.

The test deals with T1, ferroportin (Fpn) (Mus musculus, UniProt Q9JHI9).
T1 construct: endogenous in cells; host or cells: J774 mouse macrophage cell line
T1 sequence (Q9JHI9 1-570): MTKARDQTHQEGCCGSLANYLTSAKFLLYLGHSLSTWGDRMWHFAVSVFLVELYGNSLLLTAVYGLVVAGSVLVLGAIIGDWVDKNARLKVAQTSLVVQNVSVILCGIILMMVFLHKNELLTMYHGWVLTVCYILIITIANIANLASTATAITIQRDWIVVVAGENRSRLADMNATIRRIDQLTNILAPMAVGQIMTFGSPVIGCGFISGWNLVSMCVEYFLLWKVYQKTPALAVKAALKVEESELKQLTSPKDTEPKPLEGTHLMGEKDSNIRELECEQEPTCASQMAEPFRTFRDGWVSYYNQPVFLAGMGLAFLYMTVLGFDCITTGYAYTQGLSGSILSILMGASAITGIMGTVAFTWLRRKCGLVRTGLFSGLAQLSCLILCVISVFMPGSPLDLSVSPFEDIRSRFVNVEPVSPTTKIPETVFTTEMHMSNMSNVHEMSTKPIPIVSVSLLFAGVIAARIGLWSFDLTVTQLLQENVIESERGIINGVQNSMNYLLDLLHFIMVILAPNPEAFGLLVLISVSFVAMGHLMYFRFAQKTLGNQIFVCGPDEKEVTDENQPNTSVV
Description: Hepcidin internalization assay (J774). It counts as cell-based. The source says: This cellular assay allows quantification of the binding of hepcidin to ferroportin (Fpn) through microscopic detection of internalization of a fluorescently labeled hepcidin into J774 cells. […] Binding of hepcidin to Fpn triggers internalization and degradation of both hepcidin and Fpn. However, the TMR (6-carboxytetramethylrhodamine) fluorophore attached to hepcidin remains associated with the cell after degradation of the hepcidin peptide backbone. Therefore, microscopic detection of cell-associated TMR fluorescence is a measure of hepcidin binding to Fpn and internalization of hepcidin and Fpn. If TMR-hepcidin is prevented from binding to Fpn, cellular TMR fluorescence remains low (Dürrenberger et al, 2013). The effect of small molecular weight Fpn inhibitor compounds in this assay was evaluated in vitro as described below.
J774 cells, harvested from ca. 80% confluent cultures, were plated at 8x10^5 cells/ml in complete medium (DMEM, 10% FBS, 1% Penicillin-Streptomycin) containing 200 µM Fe(III)NTA (nitrilotriacetic acid), 100 µl per well of 96 well MicroClear plates (Greiner; Cat. 655090) and grown at 37° C. with 5% CO2. After overnight incubation, cells were washed 3 times with prewarmed DMEM w/o phenol red, 30 µl/well of DMEM w/o phenol red was added after the final wash and 10 µl/well of dilution series of test compounds were added in triplicates. J774 cells were pre-incubated with test compounds at 37° C. with 5% CO2 for 15 min. before TMR-hepcidin was added at 25 nM final concentration. Cells were incubated in a total volume of 50 µl at 37° C. with 5% CO2 for 2 hours, then Hoechst 33342 dye was added to a final concentration of 0.5 µg/ml to stain nuclei and further incubated for 10 min. at 37° C. with 5% CO2. Cells were washed 3 times with PBS and fixed in 100 µl of 4% paraformaldehyde in PBS for 15 min. at room temperature. After removal of the paraformaldehyde solution, cells were washed 3 times with PBS leaving 100 µl per well and the plates were sealed with foil plate seal. TMR (530-550 nm excitation / 575-625 nm emission / 400 ms exposure time) and Hoechst 33342 (360-370 nm excitation / 420-460 nm emission / 10 ms exposure time) fluorescence images were acquired using a ScanR plate imager (Olympus) with a 20x high NA objective. Four pictures were acquired per well and fluorescence channel covering ca. 1500 cells per well. The acquired image data was analysed with the ScanR image analysis software. Image analysis included detection of nuclei (Hoechst 33342 fluorescence), identification of cell-associated regions, application of a virtual channel and thresholding for rolling-ball-type background reduction, followed by application of the Sum(Mean) algorithm to measure the TMR fluorescence associated with cells as a quantitative measure for internalized TMR- hepcidin. IC50 values were calculated with the Sum(Mean) raw data using “log(inhibitor) vs. response” curve fitting of Prism 5 software (GraphPad Software Inc., version 5.02). For each data set the fit of the “log(inhibitor) vs. response (three parameters)″ model was compared to the fit of the “log(inhibitor) vs. response - Variable slope (four parameters)″ model and the IC50 data of the preferred model was used. IC50 data of the Compounds according to formula (II) and (II′), that were tested in the hepcidin internalization assay are shown in Table 1.

Setting [1] is: J774 cells, (II) and (II′) tested as 3HCl-salts, n=2, read-out: Hepcidin internalization (J774) IC50.
The mark [2] stands for this setting: average of multiple measurements, hepcidin internalization assay, 3HCl-salts, read-out: J774 IC50.

For `O=C(NCc1ncccc1F)c1coc(CCNCCc2nc3ccccc3[nH]2)n1` [Compound (II)], the IC50 under setting [1] worked out at 7.3 nM and the IC50 under setting [2] came to 7 nM. On to `O=C(NCc1ncccc1Br)c1coc(CCNCCc2nc3ccccc3[nH]2)n1` [Compound (II′)], for which the IC50 was found to be 5.9 nM under setting [1] and 6 nM under setting [2]. Turning to `CC[C@H](C)[C@@H]1NC(=O)[C@@H](NC(=O)[C@@H](NC(=O)[C@@H]2CCCN2C(=O)[C@H](Cc2ccccc2)NC(=O)[C@H](Cc2c[nH]cn2)NC(=O)[C@@H](NC(=O)[C@@H](N)CC(=O)O)[C@@H](C)O)[C@@H](C)CC)CSSC[C@@H](C(=O)N[C@@H](CCCCN)C(=O)N[C@H](C(=O)O)[C@@H](C)O)NC(=O)[C@@H]2CSSC[C@@H]3NC(=O)[C@@H]4CSSC[C@H](NC(=O)[C@H](Cc5ccccc5)NC1=O)C(=O)N[C@@H](CSSC[C@H](NC(=O)[C@H](CCCCN)NC(=O)[C@H](CO)NC(=O)[C@H](CCCNC(=N)N)NC(=O)[C@H](Cc1c[nH]cn1)NC3=O)C(=O)NCC(=O)N[C@@H](CCSC)C(=O)N2)C(=O)NCC(=O)N4` [hepcidin, reference compound], the IC50 under setting [1] worked out at 10.7 nM.
